The values that follow come from PubChem BioAssay (NCI).

Among the test systems are HL-60(TB) leukemia; HS 578T breast; HT29 colon; M14 melanoma; MDA-MB-231 breast; NCI-H226 lung; NCI-H460 lung; OVCAR-5 ovarian; PC-3 prostate; UACC-62 melanoma.
Holding throughout (assay): DTP human tumour cell line panel, 48 h

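Step 1: Grow cells in 96-well plates. Step 2: Expose to compound for 48 hours at 5 concentrations. Step 3: Interpolate endpoints linearly; if unreached, use highest concentration. GI50 is the concentration that inhibits growth by half. TGI: total growth inhibition.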

Turning to `CCN(Cc1ccc(F)cc1)c1ccc(CO)c(C)c1`, the GI50 in the experiment on HL-60(TB) leukemia is 9.86 µM; with HS 578T breast, 11.7 µM; in the experiment with HT29 colon, 20.7 µM; in the experiment on M14 melanoma it was 14.3 µM; in the experiment with MDA-MB-231 breast it was 16.6 µM; with NCI-H226 lung it was 0.291 µM. Further, the GI50 was 11.5 µM with NCI-H460 lung, 0.856 µM with OVCAR-5 ovarian, 11.6 µM in the experiment on PC-3 prostate and 1.19 µM in the experiment on UACC-62 melanoma. In addition, the TGI was 39.3 µM in the experiment with HL-60(TB) leukemia; 64.8 µM in the experiment on HS 578T breast; 55.8 µM in the experiment with HT29 colon; 37.6 µM in the experiment with M14 melanoma; 35.7 µM with MDA-MB-231 breast; 1.12 µM in the experiment with NCI-H226 lung. Also, the TGI in the experiment on NCI-H460 lung stood at 32.3 µM; with OVCAR-5 ovarian, 4.46 µM; in the experiment on PC-3 prostate, 32.3 µM; with UACC-62 melanoma it was 6.87 µM.

As for `COc1cccc(/C=N/NC(=S)NC2CC3CCC2C3)c1O` (stereo not given), the GI50 was 16.6 µM in the experiment with HL-60(TB) leukemia; 4.27 µM in the experiment on HS 578T breast; 30.1 µM with HT29 colon; 9.92 µM with M14 melanoma; 4.88 µM with MDA-MB-231 breast; 2.38 µM in the experiment with NCI-H226 lung. Also, the GI50 in the experiment on NCI-H460 lung is 2.47 µM; in the experiment with OVCAR-5 ovarian, 44.9 µM; with PC-3 prostate, 8.5 µM; in the experiment on UACC-62 melanoma, 10.8 µM. Besides, the TGI with HL-60(TB) leukemia is 60.3 µM; in the experiment on HS 578T breast it was 22.2 µM; in the experiment with HT29 colon, 91.4 µM; in the experiment on M14 melanoma, 31.9 µM; in the experiment on MDA-MB-231 breast it was 21.9 µM; with NCI-H226 lung it was 10.9 µM. Also, the TGI is 8.43 µM in the experiment on NCI-H460 lung, above 100 µM with OVCAR-5 ovarian, 27 µM in the experiment on PC-3 prostate and 50.1 µM in the experiment on UACC-62 melanoma.

Take `CC(C)(C)c1ccc(OC(=O)Nc2ccc(O)c(C(=O)O)c2)cc1`: the TGI with HL-60(TB) leukemia, in the experiment on HS 578T breast, in the experiment on HT29 colon, with M14 melanoma, with MDA-MB-231 breast and with NCI-H226 lung was above 100 µM throughout. Moreover, the TGI in the experiment with NCI-H460 lung, in the experiment with OVCAR-5 ovarian, in the experiment on PC-3 prostate and with UACC-62 melanoma was above 100 µM throughout.

As for `Oc1ccc(-c2nc3ccc4[nH]ncc4c3c3c2CCCC3)c(F)c1`, the GI50 with HL-60(TB) leukemia was 2.93 µM; with HS 578T breast, 2.35 µM; with HT29 colon, 2.7 µM; in the experiment with M14 melanoma it was 1.07 µM; in the experiment with MDA-MB-231 breast, 2.79 µM; in the experiment on NCI-H226 lung, 5.26 µM. Moreover, the GI50 was 2.18 µM in the experiment on NCI-H460 lung, 4.41 µM with OVCAR-5 ovarian, 2.75 µM in the experiment on PC-3 prostate and 1.67 µM with UACC-62 melanoma. Further, the TGI in the experiment on HL-60(TB) leukemia turned out to be 8.82 µM; with HS 578T breast, 8.98 µM; in the experiment with HT29 colon, 11.2 µM; in the experiment with M14 melanoma, 12 µM; with MDA-MB-231 breast it was 10.5 µM; with NCI-H226 lung it was 69.9 µM. In addition, the TGI with NCI-H460 lung worked out at 11.1 µM; in the experiment on OVCAR-5 ovarian it was 17.6 µM; in the experiment with PC-3 prostate, 14.8 µM; in the experiment with UACC-62 melanoma, 4.37 µM.

As for `CC(=O)N1N=C(c2ccc(Nc3ccnc4cc(Cl)ccc34)cc2)CC1c1ccc(Cl)cc1` (stereo not given), the GI50 is 3.56 µM in the experiment with HL-60(TB) leukemia; above 100 µM in the experiment with HS 578T breast; 5.4 µM with HT29 colon; 5.24 µM in the experiment on M14 melanoma; above 100 µM with MDA-MB-231 breast; above 100 µM with NCI-H226 lung. Further, the GI50 in the experiment with NCI-H460 lung is above 100 µM; in the experiment on OVCAR-5 ovarian it was above 100 µM; with PC-3 prostate, 3.02 µM; in the experiment with UACC-62 melanoma it was 2.95 µM. In addition, the TGI with HL-60(TB) leukemia, in the experiment on HS 578T breast, in the experiment with HT29 colon, in the experiment with M14 melanoma, in the experiment on MDA-MB-231 breast and with NCI-H226 lung was above 100 µM in each case. The TGI in the experiment on NCI-H460 lung, in the experiment with OVCAR-5 ovarian, in the experiment with PC-3 prostate and in the experiment on UACC-62 melanoma was above 100 µM throughout.

For the molecule `COc1cccc(-c2nn(-c3ccccc3)cc2-c2ccnc(NCCNC(=O)Nc3cccc(C(F)(F)F)c3)c2)c1`, the GI50 in the experiment with HL-60(TB) leukemia is 1.54 µM; in the experiment on HS 578T breast it was 1.99 µM; in the experiment on HT29 colon it was 1.68 µM; in the experiment on M14 melanoma, 2.79 µM; in the experiment with MDA-MB-231 breast it was 1.97 µM; in the experiment on NCI-H226 lung, 2.07 µM. In addition, the GI50 in the experiment with NCI-H460 lung is 2 µM; in the experiment with OVCAR-5 ovarian it was 1.51 µM; with PC-3 prostate it was 2.02 µM; in the experiment on UACC-62 melanoma it was 1.85 µM. Moreover, the TGI was determined as 4.23 µM in the experiment on HL-60(TB) leukemia; 5.2 µM in the experiment with HS 578T breast; 3.47 µM in the experiment with HT29 colon; 10.6 µM in the experiment on M14 melanoma; 4.58 µM in the experiment with MDA-MB-231 breast; 5.32 µM in the experiment with NCI-H226 lung. For the same molecule, the TGI was determined as 3.85 µM in the experiment on NCI-H460 lung, 3.63 µM in the experiment on OVCAR-5 ovarian, 5.24 µM in the experiment on PC-3 prostate and 3.73 µM in the experiment on UACC-62 melanoma.

Consider `COc1ccc(C(c2ccc(OCCN(C)C)cc2)c2cc3ccccc3c3ccccc23)cc1` (stereo not given), for which the GI50 in the experiment on HL-60(TB) leukemia was 1.89 µM; in the experiment on HS 578T breast it was 1.66 µM; in the experiment on HT29 colon, 1.6 µM; in the experiment on M14 melanoma, 1.73 µM; with MDA-MB-231 breast, 1.68 µM; with NCI-H226 lung it was 3.43 µM. Also, the GI50 was 1.79 µM with NCI-H460 lung, 1.56 µM with OVCAR-5 ovarian, 1.76 µM in the experiment with PC-3 prostate and 1.81 µM in the experiment with UACC-62 melanoma. For the same molecule, the TGI in the experiment with HL-60(TB) leukemia came to 3.75 µM; in the experiment with HS 578T breast it was 3.62 µM; in the experiment with HT29 colon it was 3.1 µM; with M14 melanoma, 3.25 µM; in the experiment on MDA-MB-231 breast it was 3.22 µM; in the experiment on NCI-H226 lung, 15.4 µM. The TGI in the experiment on NCI-H460 lung is 3.29 µM; with OVCAR-5 ovarian, 3.27 µM; in the experiment with PC-3 prostate it was 3.5 µM; in the experiment on UACC-62 melanoma it was 3.52 µM.

As usually defined, the GI50 is the concentration at which growth is held to half of that of the control. What is called TGI is the concentration giving total growth inhibition. Low readings indicate more potent growth arrest, high ones less potent growth arrest.
